{"source": "patent US11471442B2", "about": "“Administration of gut-selective JAK3 inhibitor” (THERAVANCE BIOPHARMA R&D IP, LLC, priority 2020, dated 2022)", "key": {"[1]": {"test": "Phase 1 SAD (Part A) plasma and urine pharmacokinetics in healthy subjects", "format": "in vivo, human", "details": "for AUC(0-inf) / Cmax / Tmax / half-life: human, plasma; for Tmax: read-out: Tmax, median (min, max); for half-life: read-out: t1/2, mean (SD) (converted)", "protocol": "The plasma PK parameters of the compound of formula (I) calculated following single (Part A) or multiple (Parts B) oral doses.\nIn each cohort, healthy subjects meeting eligibility criteria were sequentially randomized in a 3:1 ratio to receive either the compound of formula (I) or matching placebo. Study drug was administered orally as a single dose on the morning of Day 1 following an overnight fast of at least 9.5 hours. Subjects were dosed in an upright (i.e., seated or standing) position and remained upright for 5 minutes following dosing prior to performing study procedures which require a posture change. Subjects were to remain fasted, except water, until after the 4-hour post-dose assessments were completed and the 4-hour post dose PK sample was collected. PK sampling for the compound of formula (I) in plasma and urine were taken Day 1 pre-dose and for 72 hours post-dose.\nFor all subjects, blood samples for the determination of plasma concentration of the compound of formula (I) were collected at scheduled time points. Blood samples were analyzed to calculate different plasma PK parameters in both part A and part B.\nUrine samples for the determination of concentration of the compound of formula (I) were collected at various posedose intervals only in part A.\nFor all PK data analyses, the PK analysis set was used. Individual subject and mean plasma drug concentration versus time curves for the compound of formula (I) were presented for each dose group. Summary statistics (mean, standard deviation, coefficient of variation, median, minimum, maximum, geometric mean, geometric coefficient of variation, number of subjects) were calculated for plasma concentrations at each time point for each dose group, and the PK parameters for each dose group. Urine PK parameters were summarized for exploratory purposes."}, "[2]": {"test": "Phase 1 multiple ascending dose (MAD, Part B) safety and tolerability in healthy subjects", "format": "in vivo, human", "details": "for Most frequent TEAEs: Acne / Most frequent TEAEs: Dizziness / Most frequent TEAEs: Headache / Most frequent TEAEs: Pain in extremity / Subjects with TEAEs: Any TEAE / Subjects with TEAEs: Moderate or severe TEAE / Subjects with TEAEs: Serious TEAE / Subjects with TEAEs: TEAE leading to discontinuation / Total number of TEAEs: MAD, n = 6", "excerpt": "This clinical study was the first in human study of a compound of formula (I). The purpose of this study was to assess the safety, tolerability and pharmacokinetics (PK) of the compound of formula (I) through single ascending dose administration (Part A) and multiple dose administrations (Part B) in healthy subjects.\nThe number and severity of treatment emergent adverse events (TEAE5) following single (Part A) or multiple (Parts B) oral doses of the compound of formula (I) and matching placebo, and changes in safety laboratory assessments, vital signs, and ECGs.\n24 healthy, adult male and female subjects were enrolled in Part B. […] cohorts (B1 to B3) of 8 healthy subjects (6 active and 2 placebo) were evaluated.\nIn each cohort, healthy subjects meeting eligibility criteria were sequentially randomized in a 3:1 ratio to receive either the compound of formula (I) or placebo BID, each morning and evening (approximately 12 hours following the morning dose) for 10 consecutive days of dosing, except for Day 10 where subjects were only received a morning dose. Subjects were dosed in an upright (i.e., seated or standing) position and remained upright for 5 minutes after dosing before a posture change for other study procedures, if applicable. Subjects fasted overnight for at least 9.5 hours prior to morning dose on Day 1 and Day 10. Subjects continued the fast for at least 4 hours post morning dose on these days. For all other morning doses and for all evening doses (i.e., Day 1 evening and Days 2 to 9), subjects were required to fast for at least 2 hours prior and for at least 2 hours following the dose.\nSafety was determined by evaluating physical examinations, vital signs, safety 12-lead electrocardiograms (ECGs) monitoring, clinical laboratory tests, and adverse events (AEs). For procedures scheduled to be performed at common times, collection of PK samples was collected as close as possible to the designated time. The cardiodynamic recordings via ECG extractions from the Holter monitor were conducted as close as possible prior to the corresponding PK sampling. Vital signs, followed by safety ECGs, were be taken before the PK sampling (or before the cardiodynamic sampling if scheduled at the same time), unless PK samples were late as a result in which case vital signs were taken following the PK sampling.\nSafety analyses were performed using the Safety analysis set. Safety variables include vital signs, adverse events, clinical laboratory results (hematology, chemistry, coagulation, and urinalysis), and ECG parameters, such as Friderica's corrected QT interval (QTcF), PR interval, QT interval, QRS interval, and heart rate, from standard safety digital ECGs. Vital signs were summarized in terms of observed values and changes from baseline."}, "[3]": {"details": "single oral dose 1000 mg, n = 6"}, "[4]": {"details": "single oral dose 2000 mg, n = 6"}}, "note": "Read-outs that look alike come from different tables or passages of the source."}
{"compound": "CN(C)C/C=C/C(=O)N1CC(COc2cc(-c3ccc(O)cc3)cc3[nH]ncc23)C1", "note": "[compound of formula (I)]", "values": [{"measurement": "dose proportionality of exposure (AUC and Cmax)", "setting": "[1]; across the studied single-dose range", "value": "slightly less than dose proportional"}, {"measurement": "Urinary excretion, average", "setting": "[1]; all single-dose levels", "value": "< 0.1", "unit": "%"}, {"measurement": "AUC(0-inf)", "setting": "[1]; both sexes, oral, part A (SAD), 100 to 2000 mg, read-out: AUC0-inf in the plasma of the subjects (range)", "value": "2.7 to 172", "unit": "ng·h/mL"}, {"measurement": "AUC(0-inf)", "setting": "[1]; both sexes, oral, part A (SAD), 100 to 2000 mg, read-out: average AUC0-inf", "value": "8.38 to 96", "unit": "ng·h/mL"}, {"measurement": "Cmax", "setting": "[1]; both sexes, oral, single dose of 2000 mg, read-out: average Cmax", "value": 10, "unit": "ng/mL"}, {"measurement": "AUC(0-inf)", "setting": "[1]; po, 100 mg, single oral dose 100 mg, n = 6, read-out: AUCinf, mean (SD)", "value": 8.4, "unit": "ng·h/mL"}, {"measurement": "AUC(0-inf)", "setting": "[1]; po, 300 mg, single oral dose 300 mg, n = 6, read-out: AUCinf, mean (SD)", "value": 24.6, "unit": "ng·h/mL"}, {"measurement": "AUC(0-inf)", "setting": "[1]; po, 1000 mg, single oral dose 1000 mg, one subject excluded, read-out: AUCinf, mean (SD)", "value": 47, "unit": "ng·h/mL"}, {"measurement": "AUC(0-inf)", "setting": "[1]; po, 2000 mg, single oral dose 2000 mg, n = 6, read-out: AUCinf, mean (SD)", "value": 96, "unit": "ng·h/mL"}, {"measurement": "Cmax", "setting": "[1]; single oral dose 100 mg, n = 6, read-out: Cmax, mean (SD)", "value": 1.3, "unit": "ng/mL"}, {"measurement": "Tmax", "setting": "[1]; single oral dose 100 mg, n = 6", "value": 1, "unit": "h"}, {"measurement": "half-life", "setting": "[1]; single oral dose 100 mg, n = 6", "value": 17.5, "unit": "h"}, {"measurement": "Cmax", "setting": "[1]; single oral dose 300 mg, n = 6, read-out: Cmax, mean (SD)", "value": 3.4, "unit": "ng/mL"}, {"measurement": "Tmax", "setting": "[1]; single oral dose 300 mg, n = 6", "value": 1, "unit": "h"}, {"measurement": "half-life", "setting": "[1]; single oral dose 300 mg, n = 6", "value": 14.5, "unit": "h"}, {"measurement": "Cmax", "setting": "[1]; single oral dose 1000 mg, n = 6, read-out: Cmax, mean (SD)", "value": 4.8, "unit": "ng/mL"}, {"measurement": "Tmax", "setting": "[1]; [3]", "value": 1, "unit": "h"}, {"measurement": "half-life", "setting": "[1]; single oral dose 1000 mg, one subject excluded", "value": 16.6, "unit": "h"}, {"measurement": "Cmax", "setting": "[1]; single oral dose 2000 mg, n = 6, read-out: Cmax, mean (SD)", "value": 10.1, "unit": "ng/mL"}, {"measurement": "Tmax", "setting": "[1]; [4]", "value": 2, "unit": "h"}, {"measurement": "half-life", "setting": "[1]; [4]", "value": 16.6, "unit": "h"}, {"measurement": "Plasma concentrations", "setting": "[1]; single oral doses up to 2000 mg", "value": "< 35", "unit": "ng/mL"}, {"measurement": "fe0-72 (percentage of dose excreted in urine over 0 to 72 hours), mean (SD)", "setting": "[1]; single oral dose 100 mg, n = 6", "value": "0.10 (0.051) %"}, {"measurement": "fe0-72 (percentage of dose excreted in urine over 0 to 72 hours), mean (SD)", "setting": "[1]; single oral dose 300 mg, n = 6", "value": "0.082 (0.025) %"}, {"measurement": "fe0-72 (percentage of dose excreted in urine over 0 to 72 hours), mean (SD)", "setting": "[1]; [3]", "value": "0.056 (0.025) %"}, {"measurement": "fe0-72 (percentage of dose excreted in urine over 0 to 72 hours), mean (SD)", "setting": "[1]; [4]", "value": "0.063 (0.028) %"}, {"measurement": "serious AEs", "setting": "[2]; MAD cohorts", "value": "No serious AEs"}, {"measurement": "severity of reported treatment-emergent AEs", "setting": "[2]; MAD cohorts", "value": "mild"}, {"measurement": "changes from predose baseline in laboratory assessments (lipid, coagulation, hematology), vital signs or ECGs", "setting": "[2]; MAD cohorts, any time point postdose", "value": "No clinically significant changes"}, {"measurement": "Most frequent TEAEs: Acne", "setting": "[2]; 100 mg BID oral for 10 days", "value": "1 (17)"}, {"measurement": "Most frequent TEAEs: Dizziness", "setting": "[2]; 100 mg BID oral for 10 days", "value": "2 (33)"}, {"measurement": "Most frequent TEAEs: Headache", "setting": "[2]; 100 mg BID oral for 10 days", "value": "2 (33)"}, {"measurement": "Most frequent TEAEs: Pain in extremity", "setting": "[2]; 100 mg BID oral for 10 days", "value": "1 (17)"}, {"measurement": "Subjects with TEAEs: Any TEAE", "setting": "[2]; 100 mg BID oral for 10 days", "value": "5 (83)"}, {"measurement": "Subjects with TEAEs: Moderate or severe TEAE", "setting": "[2]; 100 mg BID oral for 10 days", "value": 0}, {"measurement": "Subjects with TEAEs: Serious TEAE", "setting": "[2]; 100 mg BID oral for 10 days", "value": 0}, {"measurement": "Subjects with TEAEs: TEAE leading to discontinuation", "setting": "[2]; 100 mg BID oral for 10 days", "value": 0}, {"measurement": "Total number of TEAEs", "setting": "[2]; 100 mg BID oral for 10 days", "value": 11}, {"measurement": "Most frequent TEAEs: Acne", "setting": "[2]; 300 mg BID oral for 10 days", "value": 0}, {"measurement": "Most frequent TEAEs: Dizziness", "setting": "[2]; 300 mg BID oral for 10 days", "value": 0}, {"measurement": "Most frequent TEAEs: Headache", "setting": "[2]; 300 mg BID oral for 10 days", "value": 0}, {"measurement": "Most frequent TEAEs: Pain in extremity", "setting": "[2]; 300 mg BID oral for 10 days", "value": 0}, {"measurement": "Subjects with TEAEs: Any TEAE", "setting": "[2]; 300 mg BID oral for 10 days", "value": "1 (17)"}, {"measurement": "Subjects with TEAEs: Moderate or severe TEAE", "setting": "[2]; 300 mg BID oral for 10 days", "value": 0}, {"measurement": "Subjects with TEAEs: Serious TEAE", "setting": "[2]; 300 mg BID oral for 10 days", "value": 0}, {"measurement": "Subjects with TEAEs: TEAE leading to discontinuation", "setting": "[2]; 300 mg BID oral for 10 days", "value": 0}, {"measurement": "Total number of TEAEs", "setting": "[2]; 300 mg BID oral for 10 days", "value": 9}, {"measurement": "Most frequent TEAEs: Acne", "setting": "[2]; 1000 mg BID oral for 10 days", "value": 0}, {"measurement": "Most frequent TEAEs: Dizziness", "setting": "[2]; 1000 mg BID oral for 10 days", "value": 0}, {"measurement": "Most frequent TEAEs: Headache", "setting": "[2]; 1000 mg BID oral for 10 days", "value": 0}, {"measurement": "Most frequent TEAEs: Pain in extremity", "setting": "[2]; 1000 mg BID oral for 10 days", "value": 0}, {"measurement": "Subjects with TEAEs: Any TEAE", "setting": "[2]; 1000 mg BID oral for 10 days", "value": 0}, {"measurement": "Subjects with TEAEs: Moderate or severe TEAE", "setting": "[2]; 1000 mg BID oral for 10 days", "value": 0}, {"measurement": "Subjects with TEAEs: Serious TEAE", "setting": "[2]; 1000 mg BID oral for 10 days", "value": 0}, {"measurement": "Subjects with TEAEs: TEAE leading to discontinuation", "setting": "[2]; 1000 mg BID oral for 10 days", "value": 0}, {"measurement": "Total number of TEAEs", "setting": "[2]; 1000 mg BID oral for 10 days", "value": 0}, {"measurement": "tolerability", "setting": "[2]; multiple doses up to 1000 mg BID for 10 days", "value": "generally well-tolerated"}]}
